Converted amounts (≈) assume the structure as drawn.

Experimental findings from patent US20240116926A1, “HETEROAROMATIC COMPOUNDS” (AstraZeneca AB, priority 2022, published 2024) are described below.

In series [1] the target is TEAD4(217-434) (Homo sapiens (Human), UniProt Q15561). The experiment in a line: TEAD4 FRET. It is filed as binding. The note with it: depalmitoylated, biotinylated TEAD4(217-434), FAM labelled Probe A, 120 min at 25° C. The method, then:
Compounds were dosed with a final DMSO concentration of 1% (v/v). Compound IC50 values were assessed following a 10-point, half-log10 dilution schema starting at 100 μM compound concentration. Specifically, human TEAD protein from TEAD4(217-434) was cloned into an overexpression vector, expressed as an N-terminal HIS-TEV-Avi-tagged fusion protein in E coli, and subsequently purified, then protein was chemically depalmitoylated & biotinylated. The assay was performed in 384-well LV plates (384-well black, medium binding, PS, HIBASE, GREINER #784076) and run in the presence and absence of the compound of interest. Each well of 5 μL assay mixture contained 10 mM Tris-HCl (pH 7.5), 100 mM NaCl, 0.05 mM EDTA, 1 mM TECP, 1% DMSO, 0.03% Pluronic acid F127, 20 nM dePal Avi TEAD4 (217-434)-depalmitoylated & biotinylated protein, 0.8 nM Streptavidin Terbium cryptate (CisBio #610SATLB), 625 nM FAM labelled Probe A. Reactions were incubated at 25° C. for 120 min before reading on a PHERASTAR FSX Plate Reader (337 520 490 HTRF module required) (Supplier BMP).
The data file from the PHERAstar FSX contains both the acceptor (520 nm) and donor channels (490 nm) (“Channel A”=acceptor channel (520 nm), “Channel B”=donor channel (490 nm)). The ratio of the donor and acceptor (Channel A/Channel B) is calculated within Genedata Assay Analyzer.
Probe A is 3′,6′-dihydroxy-3-oxo-N-{8-[2-(5-{2-[4-(trifluoromethyl)anilino]phenyl}-2H-tetrazol-2-yl)acetamido]octyl}-3H-spiro[[2]benzofuran-1,9′-xanthene]-5-carboxamide;

Series [2] concerns MCF7-Tead cell line. The experiment in a line: TEAD reporter assay. In kind it is cell-based. The note with it: MCF7-Tead cells, luciferase activity after 24 hours. The method, then: (§1) MCF7-Tead cell line was obtained from BPS BIOSCIENCE (catalog number 60618) and was maintained in DMEM containing 10% fetal calf serum, 2 mM glutamine, and 400 μg/ml G418. Cells were grown in a humidified incubator at 37° C. with 5% CO2. Cells were distributed to flat bottom white polystyrene TC treated 384 well plates at a density of 3,500 cells/well in 30 uL. Cells were incubated for 24 hours at 37° C. with 5% CO2. Cells were acoustically dosed using an Echo 555, with compounds serially diluted in 100% DMSO. Plates were incubated for an additional 24 hours. Cells were examined for luciferase activity through the addition of 30 μL Bright-Glo luciferase (Promega catalog number E2620). Plates were incubated for 10 minutes at room temperature and luminescence was read using Tecan plate reader. The data obtained with each compound was exported to […] software to perform curve fitting analysis.
(In a reporter assay the amount or activity of a reporter protein is the signal.)

Series [3] concerns MCF7-Luciferase cell line. The experiment in a line: Control reporter (MCF7-Luciferase). The note with it: MCF7-Luciferase cells, luciferase activity after 24 hours. It is filed as cell-based. The procedure: (iii) Control Reporter (MCF7-Luciferase)
as §1, with “MCF7-Luciferase” for “MCF7-Tead”, “BPS BIOSCIENCE” left out, “SC050-L)” for “60618)”, “glutamine.” for “glutamine, and 400 μg/ml G418.”, “μL.” for “uL.”

Series [4] is described as follows: Solubility (thermodynamic, shake-flask). It is filed as physicochemical. The note with it: thermodynamic from solid; aqueous phosphate buffer (pH 7.4), 24 hours at 25° C. The procedure:
The thermodynamic solubility of a research compound is measured under standard conditions. It is a shake-flask approach that uses 10 mM DMSO solutions which are supplied from the Compound Managements liquid store and is a high throughput method. The dried compounds are equilibrated in an aqueous phosphate buffer (pH 7.4) for 24 hours at 25° C., the portion with the dissolved compound is then separated from the remains. The solutions are analyzed and quantified using UPLC/MS/MS, QC-samples are incorporated in each assay-run to ensure the quality of the assay.

Series [5] is described as follows: Protein binding measurements in human plasma (Hu PPB). In kind it is in vitro ADME. The note with it: equilibrium dialysis for 18 hours, fraction unbound. The procedure:
The automated equilibrium dialysis assay in human plasma uses the RED (Rapid Equilibrium Dialysis) Device and sample handling. The assay generally runs over two to three days including delivery of results. After dialysis for 18 hours, plasma and buffer samples are prepared for analysis by liquid chromatography and mass spectrometry. Samples are generally tested in singlicates and quantified by LC/MSMS by using a 7-point calibration curve in plasma. The compounds are pooled together in plasma pools up to 10 compounds. Three reference compounds are used in each run, Propranolol, Metoprolol and Warfarin. Warfarin is used as a control in each pool and Propranolol and Metoprolol are placed randomly in each run. An in-house Excel macro is used for preparation of files for the robot and the mass spectrometer and is also used for the calculations of fraction unbound (fu %) in plasma.

TEAD4(217-434), sequence (Q15561 217-434): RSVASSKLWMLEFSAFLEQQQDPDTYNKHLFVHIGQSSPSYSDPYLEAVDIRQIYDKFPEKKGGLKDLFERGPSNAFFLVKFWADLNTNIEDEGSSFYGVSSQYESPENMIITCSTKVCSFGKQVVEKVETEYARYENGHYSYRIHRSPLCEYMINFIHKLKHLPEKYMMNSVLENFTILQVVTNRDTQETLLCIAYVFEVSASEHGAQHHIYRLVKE

Regarding `C=CC(=O)N1CC[C@H](Nc2nnc(-c3ccc(C(F)(F)F)cc3)c3cccc(F)c23)C1` [Example 13, (S)-1-(3-((8-fluoro-4-(4-(trifluoromethyl)phenyl)phthalazin-1-yl)amino)pyrrolidin-1-yl)prop-2-en-1-one], the IC50 was 0.041 µM in series [1], 0.03 µM in series [2] and above 31.7 µM in series [3]. Further, the solubility at 24 h in series [4] is 40 µM (≈ 17.2 µg/mL). Moreover, the “Hu PPB (% free)” value in series [5] was 6.1 % free.
Regarding `CC#CC(=O)N1CC[C@H](Nc2nnc(-c3ccc(C(F)(F)F)cc3)c3ccccc23)C1` [Example 20, (S)-1-(3-((4-(4-(trifluoromethyl)phenyl)phthalazin-1-yl)amino)pyrrolidin-1-yl)but-2-yn-1-one], the IC50 came to 0.432 µM in series [2] and 22.5 µM in series [3]. Moreover, in series [4], the solubility at 24 h amounted to 33 µM (≈ 14 µg/mL). Besides, the “Hu PPB (% free)” value in series [5] was determined as 2.0 % free.
With `C=CC(=O)N1CC[C@H](Nc2nnc(-c3ccc(C(F)(F)F)cc3)c3ccccc23)C1` [Example 9, (S)-1-(3-((4-(4-(trifluoromethyl)phenyl)phthalazin-1-yl)amino)pyrrolidin-1-yl)prop-2-en-1-one], the IC50 in series [2] was 0.06 µM; in series [3] it was above 31.7 µM. Moreover, in series [4], the solubility at 24 h was below 0.8 µM. In addition, the “Hu PPB (% free)” value in series [5] stood at 4.7 % free.
With `C=CC(=O)NC1(CNc2nnc(-c3ccc(C(F)(F)F)cc3)c3ccccc23)CC1` [Example 40, N-(1-(((4-(4-(trifluoromethyl)phenyl)phthalazin-1-yl)amino)methyl)cyclopropyl)acrylamide], the 50% inhibitory concentration (IC50) in series [2] was 0.351 µM; in series [3] it was above 31.7 µM. Further, the solubility at 24 h in series [4] stood at 3 µM (≈ 1.24 µg/mL). Besides, the “Hu PPB (% free)” value in series [5] was 1.6 % free.
On to `C=CC(=O)N1C[C@H](F)[C@H](Nc2nnc(-c3ccc(C(F)(F)F)cc3)c3ccccc23)C1` [Example 10, 1-((3S,4R)-3-fluoro-4-((4-(4-(trifluoromethyl)phenyl)phthalazin-1-yl)amino)pyrrolidin-1-yl)prop-2-en-1-one], for which the IC50 stood at 0.032 µM in series [1], 0.015 µM in series [2] and 15.6 µM in series [3]. The solubility at 24 h in series [4] was 67 µM (≈ 28.8 µg/mL).
For `C=CC(=O)N1CC(C#N)[C@@H](Nc2nnc(-c3ccc(C(F)(F)F)cc3)c3ccccc23)C1` (single isomer, unassigned; enantiomer 1) [Example 30, enantiomer 1 of trans-1-acryloyl-4-((4-(4-(trifluoromethyl)phenyl)phthalazin-1-yl)amino)pyrrolidine-3-carbonitrile], in that order: 0.1 µM, 0.143 µM, 13 µM and 191 µM (≈ 83.5 µg/mL).
Turning to `C=CC(=O)N1C[C@H](F)[C@H](Nc2nnc(-c3ccc(C(F)(F)F)cc3)c3ncccc23)C1` [Example 1, 1-((3S,4R)-3-fluoro-4-((8-(4-(trifluoromethyl)phenyl)pyrido[2,3-d]pyridazin-5-yl)amino)pyrrolidin-1-yl)prop-2-en-1-one], the IC50 in series [1] was determined as 0.093 µM; in series [2], 0.067 µM; in series [3], 27.3 µM. The molecule also returned a solubility at 24 h in series [4] of 209 µM (≈ 90.2 µg/mL).
With `C=CC(=O)N1CC[C@H](Nc2ncc(-c3ccc(C(F)(F)F)cn3)c3ncccc23)C1` [Example 38, (S)-1-(3-((8-(5-(trifluoromethyl)pyridin-2-yl)-1,6-naphthyridin-5-yl)amino)pyrrolidin-1-yl)prop-2-en-1-one], the half-inhibitory concentration (IC50) in series [2] is 0.034 µM; in series [3], above 31.7 µM. The solubility at 24 h in series [4] turned out to be 191 µM (≈ 79 µg/mL). Further, in series [5], the “Hu PPB (% free)” value was 12.5 % free.
As for `C=CC(=O)N1C[C@H](F)[C@H](Nc2ncc(-c3ccc(C(F)(F)F)cc3)c3nccnc23)C1` [Example 43, 1-((3S,4R)-3-fluoro-4-((8-(4-(trifluoromethyl)phenyl)pyrido[3,4-b]pyrazin-5-yl)amino)pyrrolidin-1-yl)prop-2-en-1-one], the IC50 in series [1] was determined as 0.012 µM; in series [2] it was 0.011 µM; in series [3], 13.3 µM. For the same molecule, the solubility at 24 h in series [4] was found to be 16 µM (≈ 6.9 µg/mL).

A word on the IC50: it is the concentration needed to halve the response being measured. A lower IC50 goes with greater potency in that assay. By solubility is commonly meant how much of the substance goes into solution per volume. A higher solubility goes with a readily soluble substance.
